Source: article PMC6332173, “Diterpenoids from Saliva plebeia R. Br. and Their Antioxidant and Anti-Inflammatory Activities” (Molecules, 2015)

Experiments:
[1] = system: NO production in LPS-stimulated RAW 264.7 macrophages; assay: NO production in LPS-stimulated RAW 264.7 macrophages (Griess reaction); assay type: cell-based, murine; conditions: Mus musculus, RAW264.7; for inhibition at 30 µM / inhibition at 3 µM / inhibition at 10 µM / inhibition at 100 µM: LPS 1 μg/mL, 24 h, mean ± SD, n=3, read-out: NO Inhibition Rate (%); for IC50: LPS-induced RAW 264.7 macrophages, read-out: IC50 of NO production inhibition
[2] = DPPH radical scavenging assay; conditions: for DPPH radical scavenging rate: 30 min, absorbance 517 nm
Protocol: DPPH radical assay: DPPH radical scavenging assay was performed according to previous protocol with modifications. DPPH was dissolved in ethanol at the concentration of 200 µM. One hundred microliters of compounds (5, 10, 20, 30, 50 µM) were added to the 96-well plates, and evaded the light preservation for 30 min after addition 100 µL DPPH. Then the absorbance was measured at 517 nm using Thermo Scientific Varioskan Flash. Vitamin C was used as the positive control. The inhibitory effect was expressed as scavenging rate of alleviation and was calculated as follows: Scavenging rate (%) = [1 − (A1 − A2)/A0] × 100 (1) A1 refers to the absorbance with various concentrations of test compounds and DPPH, A2 refers to the absorbance with various concentrations of test compounds and ethanol, A0 refers to the absorbance with distilled water and DPPH.

[3] = system: intracellular ROS production in LPS-stimulated RAW 264.7 macrophages; assay: Intracellular ROS assay in LPS-stimulated RAW 264.7 macrophages (DCFH-DA); assay type: cell-based, murine; conditions: Mus musculus, RAW264.7, LPS 1 μg/mL, 6 h, mean ± SD, n=3, read-out: Intracellular ROS Inhibition Rate (%)
Protocol: Intracellular ROS assay: Intracellular ROS assay was performed according to the method reported previously. RAW 264.7, a murine macrophage cell line, was obtained from the Pharmacognosy Laboratory of Prof. Mian Zhang, China Pharmaceutical University. Cells were cultured in DMEM containing 10% fetal bovine serum, 100 U/mL penicillin and 100 U/mL streptomycin at 37 °C in a humidified atmosphere containing 5% CO2 and 95% air. The cells (1 × 10^5 cells/well) were pre-incubated in the 96-well plate for 12 h. Then, cells were cultured in normal medium as normal group, or 1 μg/mL LPS as control group, or 1 μg/mL LPS plus different concentration of compounds as test group. After the cells of each group were treated for 6 h, the medium was removed, and the cells were incubated with 50 μL 2,7-Dichlorofluorescein diacetate (DCFH-DA) (10 μM) for 20 min at 37 °C. After that, the cells were washed with PBS carefully three times to remove free DCFH-DA. The absorbance was determined at 525 nm using Thermo Scientific Varioskan Flash. Apocynin was used as the positive control. The inhibitory rate (%) was calculated according to the equation: Inhibition rate (%) = [1 − (B1 − B0)/(B2 − B0)] × 100 (2) B1 refers to the absorbance of […], B0 refers to the absorbance of normal group.

RAW 264.7 macrophages = assay type: cell-based, murine; conditions: mouse, 24 h, 100 µM
Protocol: The MTT assay was used to evaluate the cell viability, as previously reported. RAW 264.7 macrophages were seeded at a density of 1 × 10^5 cells /mL in 96-well plates and cultured for 24 h with the test compound (100 µM) at 37 °C in a 5% CO2 incubator. Subsequently, 20 μL of MTT solution (5 mg/mL) was added to each well and incubated for 4 h at 37 °C and the resulted crystals were dissolved in DMSO. The optical density was measured at 490 nm using Thermo Scientific Varioskan Flash.

Structure (SMILES)	inhibition at 30 µM [1]	IC50 [2]	DPPH radical scavenging rate ([2]; 5 µM compound)	DPPH radical scavenging rate ([2]; 10 µM compound)	DPPH radical scavenging rate ([2]; 20 µM compound)	DPPH radical scavenging rate ([2]; 30 µM compound)	DPPH radical scavenging rate ([2]; 50 µM compound)	inhibition at 3 µM [1]	inhibition at 10 µM [1]	inhibition at 100 µM [1]	IC50 [1]	inhibition at 10 µM [3]	inhibition at 30 µM [3]	inhibition at 100 µM [3]	Cell Viability (% vs. Control) (RAW 264.7 macrophages)	melting point
CC(C)Cc1ccc(C(C)C(=O)O)cc1 (stereo not drawn) [ibuprofen, reference compound]	32.3 ± 4.2%															
CC(C)c1cc2c(c(O)c1O)[C@@]13CCCC(C)(C)[C@@H]1C[C@@H]2OC3=O [Compound 2, carnosol]	63.3 ± 5.3%	28.8 µM	5.9 ± 1.6%	15.4 ± 2.6%	29.5 ± 1.9%	59.3 ± 4.2%	86.1 ± 3.3%	20.5 ± 2.6%	32 ± 4.8%	103 ± 5.9%	21.5 µM	29.5 ± 3.1%	53.2 ± 2%	80.3 ± 1.3%	110.5 ± 0.9%	
CC(C)c1cc(C=O)c2c(c1O)OC(=O)C1C(C)(C)CCC[C@]21C=O (stereo partly drawn) [Compound 4, saficinolide]	15.8 ± 4.4%	> 50 µM	14.5 ± 2.9%	15.2 ± 6.0%	15.5 ± 1.3%	7.0 ± 4.7%	13.2 ± 1.5%	6.3 ± 2.4%	11.9 ± 5.8%	28.7 ± 5.3%	> 100 µM	8.1 ± 3.2%	16.6 ± 4.4%	47.1 ± 6.1%	101.3 ± 5.0%	
COc1cc(C(C)=O)ccc1O [Apocynin, reference compound]														92.9 ± 2.6%		
CC(C)c1cc(O)c2c(c1O)[C@@H]1CC3C(C)(C)CCC[C@]23C(=O)O1 (stereo partly drawn) [Compound 3, isocarnosol]	59.4 ± 4.7%	> 50 µM	3.4 ± 2.3%	11.5 ± 2.4%	24.5 ± 1.2%	42.6 ± 6.0%	49.0 ± 1.1%	18.8 ± 3%	29.9 ± 5%	98.1 ± 6.5%	23.6 µM	13.5 ± 1.1%	16 ± 1.9%	22 ± 1.8%	106.7 ± 1.5%	
O=C1O[C@H]([C@@H](O)CO)C(O)=C1O [Vit. C, Vitamin C, reference compound]		26.5 µM	6.1 ± 4.4%	21.6 ± 2.2%	43.8 ± 2.6%	57.6 ± 5.4%	89.1 ± 2.2%									
CC(C)C1CC2C(CO)(CC(O)C(O)C2(C)C)c2c(O)cc(O)cc21 [Compound 1, 1,2,3,4,4α,9,10,10α-octahydro-(4α-hydroxyymethyl)-1,1-dimethyl-9-(1-methylethyl)-(2S,3S,4αR,9R,10αS)-2,3,5,7-phenanthrenetertrol]	68.9 ± 5.2%	29.6 µM	16.6 ± 3.3%	21.0 ± 1.8%	39.2 ± 4.1%	53.4 ± 8.2%	75.4 ± 6.8%	18 ± 3.2%	42.9 ± 2.5%	86.6 ± 4.9%	18 µM	24.6 ± 2.4%	56.1 ± 8.2%	64.8 ± 5.2%	97.3 ± 4.2%	232 to 233 °C
CC(C)c1cc2c(c(O)c1O)[C@]13CO[C@H]2C[C@H]1C(C)(C)C[C@H](O)C3 [Compound 5, 2,11,12-trihydroxy-7,20-epoxy-8,11,13-abietatriene]	16.4 ± 5.4%	20 µM	9.2 ± 5.8%	23.8 ± 6.6%	55.4 ± 2.7%	72.6 ± 5.7%	89.6 ± 1.3%	5.7 ± 3.8%	4.9 ± 7.3%	25.6 ± 4%	> 100 µM	13 ± 3.3%	51.8 ± 2.2%	91.3 ± 9.2%	91.6 ± 2.3%	
